Laboratory results from US20060069132A1, “Azolecarboxamide herbicides” (priority 2004, published 2006).
Where two headings read alike, the source gives them in different places.

Assays:
[1] = tested on: cocklebur; assay: Test B pre-/postemergence herbicide test; assay type: in vivo, Xanthium strumarium; conditions: Xanthium strumarium; for pest or weed control at 125 g/ha: 125 g ai/ha; for pest or weed control at 500 g/ha: 500 g ai/ha
Summary of the method: (§1)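 Visual rating, 0 (no effect) to 100 (complete control), versus untreated controls after 13–15 d in greenhouse. Pre- and postemergence applications (postemergence plants 2–18 cm, 1–4 leaves); flooded paddy arm at 2-leaf stage. Compounds in non-phytotoxic solvent plus surfactant.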

[2] = tested on: giant foxtail; assay: Test B pre-/postemergence herbicide test; assay type: in vivo, Setaria faberi; conditions: Setaria faberi, 336 h; for pest or weed control at 125 g/ha: 125 g ai/ha; for pest or weed control at 500 g/ha: 500 g ai/ha
Summary of the method: as §1

[3] = tested on: barnyardgrass; assay: Test B pre-/postemergence herbicide test; assay type: in vivo, Echinochloa crus-galli; conditions: Echinochloa crus-galli; for pest or weed control at 125 g/ha: 125 g ai/ha; for pest or weed control at 500 g/ha: 500 g ai/ha
Summary of the method: as §1

[4] = tested on: rice; assay: Test B flooded paddy test; assay type: in vivo, Oryza sativa; conditions: Oryza sativa, 336 h, 1000 g ai/ha, visual rating, scale 0 to 100 (0 no effect, 100 complete control), 13 to 15 days, read-out: Rice plant response rating
Summary of the method: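 Read-out: visual comparison with controls, scored 0 to 100, where 100 means complete control and 0 no effect. Formulated chemicals were applied postemergence to plants 2–18 cm tall (1- to 4-leaf), or to flooded-paddy plants at the 2-leaf stage, then held 13 to 15 days under glass.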

[5] = tested on: corn; assay: Test B pre-/postemergence herbicide test; assay type: in vivo, Zea mays; conditions: Zea mays; for plant injury at 125 g/ha: 125 g ai/ha
Summary of the method: as §1

[6] = tested on: barnyardgrass; assay: Test B flooded paddy test; assay type: in vivo, Echinochloa crus-galli; conditions: Echinochloa crus-galli, 336 h, 1000 g ai/ha, visual rating, scale 0 to 100 (0 no effect, 100 complete control), 13 to 15 days, read-out: Barnyardgrass plant response rating
Summary of the method: (§2)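 Visual ratings, 0 (no effect) to 100 (complete control), made versus controls after 13–15 d greenhouse. Paddy plants treated at 2-leaf stage; postemergence plants at 1- to 4-leaf stage, 2–18 cm tall.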

[7] = tested on: large crabgrass; assay: Test B pre-/postemergence herbicide test; assay type: in vivo, Digitaria sanguinalis; conditions: Digitaria sanguinalis; for pest or weed control at 125 g/ha: 125 g ai/ha; for pest or weed control at 500 g/ha: 500 g ai/ha
Summary of the method: as §1

[8] = tested on: blackgrass; assay: Test B postemergence herbicide test; assay type: in vivo, Alopecurus myosuroides; conditions: Alopecurus myosuroides, post-emergence, 336 h, postemergence, visual rating, scale 0 (no effect) to 100 (complete control), read-out: Blackgrass plant response rating
Summary of the method: as §2

[9] = tested on: lambsquarters; assay: Test B pre-/postemergence herbicide test; assay type: in vivo, Chenopodium album; conditions: Chenopodium album, 336 h; for pest or weed control at 125 g/ha: 125 g ai/ha; for pest or weed control at 500 g/ha: 500 g ai/ha
Summary of the method: as §1

[10] = tested on: Surinam grass; assay: Test B pre-/postemergence herbicide test; assay type: in vivo, Urochloa decumbens; conditions: Urochloa decumbens; for pest or weed control at 125 g/ha: 125 g ai/ha; for pest or weed control at 500 g/ha: 500 g ai/ha
Summary of the method: as §1

[11] = tested on: ducksalad; assay: Test B flooded paddy test; assay type: in vivo, Heteranthera limosa; conditions: Heteranthera limosa, 336 h, 1000 g ai/ha, visual rating, scale 0 to 100 (0 no effect, 100 complete control), 13 to 15 days, read-out: Ducksalad plant response rating
Summary of the method: as §2

[12] = tested on: wild oat; assay: Test B postemergence herbicide test; assay type: in vivo, Avena fatua; conditions: Avena fatua, post-emergence, 336 h, postemergence, visual rating, scale 0 (no effect) to 100 (complete control), read-out: Oat, Wild plant response rating
Summary of the method: (§3)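 Formulated test chemicals went onto postemergence plants measuring 2 to 18 cm, at one to four leaves. For the paddy assay, species had reached two leaves. Scoring took place 13–15 days later by eye, relative to untreated plants, using 0 for no effect up to 100 for full control.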

[13] = tested on: morningglory; assay: Test B pre-/postemergence herbicide test; assay type: in vivo, Ipomoea coccinea; conditions: Ipomoea, 336 h; for pest or weed control at 125 g/ha: 125 g ai/ha; for pest or weed control at 500 g/ha: 500 g ai/ha
Summary of the method: as §1

[14] = tested on: pigweed; assay: Test B pre-/postemergence herbicide test; assay type: in vivo, Amaranthus retroflexus; conditions: Amaranthus retroflexus, 336 h; for pest or weed control at 125 g/ha: 125 g ai/ha; for pest or weed control at 500 g/ha: 500 g ai/ha
Summary of the method: as §1

[15] = tested on: wheat; assay: Test B postemergence herbicide test; assay type: in vivo, Triticum aestivum; conditions: Triticum aestivum, post-emergence, 336 h, postemergence, visual rating, scale 0 (no effect) to 100 (complete control), read-out: Wheat plant response rating
Summary of the method: as §3

[16] = tested on: small flower umbrella sedge; assay: Test B flooded paddy test; assay type: in vivo, Cyperus difformis; conditions: Cyperus difformis, 336 h, 1000 g ai/ha, visual rating, scale 0 to 100 (0 no effect, 100 complete control), 13 to 15 days, read-out: Sedge, Umbrella plant response rating
Summary of the method: as §2

[17] = post-emergence, postemergence, visual rating, scale 0 (no effect) to 100 (complete control), read-out: Cocklebur plant response rating
[18] = post-emergence, postemergence, visual rating, scale 0 (no effect) to 100 (complete control), read-out: Foxtail, Giant plant response rating
[19] = post-emergence, postemergence, visual rating, scale 0 (no effect) to 100 (complete control), read-out: Barnyardgrass plant response rating
[20] = post-emergence, postemergence, visual rating, scale 0 (no effect) to 100 (complete control), read-out: Crabgrass, Large plant response rating
[21] = post-emergence, postemergence, visual rating, scale 0 (no effect) to 100 (complete control), read-out: Lambsquarters plant response rating
[22] = post-emergence, postemergence, visual rating, scale 0 (no effect) to 100 (complete control), read-out: Surinam Grass plant response rating
[23] = post-emergence, postemergence, visual rating, scale 0 (no effect) to 100 (complete control), read-out: Morningglory plant response rating
[24] = post-emergence, postemergence, visual rating, scale 0 (no effect) to 100 (complete control), read-out: Pigweed plant response rating

CCc1nn(C(C)(C)C)cc1C(=O)Nc1cccc(C(=O)N(CC)CC)c1 [Compound 182, N-[3-[(diethylamino)carbonyl]phenyl]-1-(1,1-dimethylethyl)-3-ethyl-1H-pyrazole-4-carboxamide]
50%: pest or weed control at 125 g/ha [1, 17] | pest or weed control at 500 g/ha [3, 19] | pest or weed control at 125 g/ha [13, 23] | pest or weed control at 125 g/ha [14, 24]
70%: pest or weed control at 125 g/ha ([7]; pre-emergence, 0 = no effect, 100 = complete control, read-out: Crabgrass, Large plant response rating (0 to 100 scale)) | pest or weed control at 500 g/ha [9, 21] | pest or weed control at 500 g/ha [13, 23] | pest or weed control at 500 g/ha [14, 24]
40%: pest or weed control at 1000 g/ha [6]
20%: pest or weed control at 500 g/ha [2, 18] | pest or weed control at 125 g/ha ([3]; pre-emergence, 0 = no effect, 100 = complete control, read-out: Barnyardgrass plant response rating (0 to 100 scale)) | pest or weed control at 125 g/ha [7, 20] | pest or weed control at 125 g/ha ([9]; pre-emergence, 0 = no effect, 100 = complete control, read-out: Lambsquarters plant response rating (0 to 100 scale)) | pest or weed control at 500 g/ha [10, 22] | pest or weed control at 125 g/ha ([10]; pre-emergence, 0 = no effect, 100 = complete control, read-out: Surinam Grass plant response rating (0 to 100 scale)) | pest or weed control at 125 g/ha ([12]; 125 g ai/ha)
30%: pest or weed control at 125 g/ha ([2]; pre-emergence, 0 = no effect, 100 = complete control, read-out: Foxtail, Giant plant response rating (0 to 100 scale)) | pest or weed control at 125 g/ha [3, 19] | plant injury at 125 g/ha ([5]; post-emergence, postemergence, visual rating, scale 0 (no effect) to 100 (complete control), read-out: Corn plant response rating) | plant injury at 500 g/ha ([5]; post-emergence, postemergence, 500 g ai/ha, visual rating, scale 0 (no effect) to 100 (complete control), read-out: Corn plant response rating) | pest or weed control at 500 g/ha [7, 20] | pest or weed control at 500 g/ha ([12]; 500 g ai/ha) | pest or weed control at 500 g/ha ([13]; pre-emergence, visual rating 0-100, 0 no effect, 100 complete control, read-out: Plant response rating, Morningglory)
10%: pest or weed control at 125 g/ha [10, 22] | pest or weed control at 125 g/ha ([13]; pre-emergence, 0 = no effect, 100 = complete control, read-out: Morningglory plant response rating (0 to 100 scale)) | plant injury at 500 g/ha ([15]; 500 g ai/ha)
80%: pest or weed control at 500 g/ha ([3]; pre-emergence, visual rating 0-100, 0 no effect, 100 complete control, read-out: Plant response rating, Barnyardgrass) | pest or weed control at 1000 g/ha [16]
60%: pest or weed control at 500 g/ha [1, 17] | pest or weed control at 125 g/ha [9, 21] | pest or weed control at 500 g/ha ([10]; pre-emergence, visual rating 0-100, 0 no effect, 100 complete control, read-out: Plant response rating, Surinam Grass) | pest or weed control at 1000 g/ha [11]
100%: pest or weed control at 500 g/ha ([2]; pre-emergence, visual rating 0-100, 0 no effect, 100 complete control, read-out: Plant response rating, Foxtail, Giant) | pest or weed control at 500 g/ha ([7]; pre-emergence, visual rating 0-100, 0 no effect, 100 complete control, read-out: Plant response rating, Crabgrass, Large) | pest or weed control at 500 g/ha ([9]; pre-emergence, visual rating 0-100, 0 no effect, 100 complete control, read-out: Plant response rating, Lambsquarters) | pest or weed control at 125 g/ha ([14]; pre-emergence, 0 = no effect, 100 = complete control, read-out: Pigweed plant response rating (0 to 100 scale)) | pest or weed control at 500 g/ha ([14]; pre-emergence, visual rating 0-100, 0 no effect, 100 complete control, read-out: Plant response rating, Pigweed)
0%: pest or weed control at 125 g/ha ([1]; pre-emergence, 0 = no effect, 100 = complete control, read-out: Cocklebur plant response rating (0 to 100 scale)) | pest or weed control at 500 g/ha ([1]; pre-emergence, visual rating 0-100, 0 no effect, 100 complete control, read-out: Plant response rating, Cocklebur) | pest or weed control at 125 g/ha [2, 18] | plant injury at 1000 g/ha [4] | plant injury at 125 g/ha ([5]; pre-emergence, 0 = no effect, 100 = complete control, read-out: Corn plant response rating (0 to 100 scale)) | Corn plant response rating (crop injury, 0 = no effect, 100 = complete kill) at 500 g/ha ([5]; pre-emergence, 500 g ai/ha, visual rating 0-100, 0 no effect, 100 complete control) | pest or weed control at 125 g/ha ([8]; 125 g ai/ha) | pest or weed control at 500 g/ha ([8]; 500 g ai/ha) | plant injury at 125 g/ha ([15]; 125 g ai/ha)
